According to patent US20140010901A1, “BLEOMYCIN HYDROLASE PRODUCTION PROMOTOR” (Shiseido Company, Ltd., priority 2011, published 2014):
Entries after “also recorded” stand apart in the source; their conditions may differ.

Columns and labels:
bleomycin hydrolase [1] = assay: Screening for bleomycin hydrolase production promoting effects (RT-PCR, cultured human keratinocytes); type: cell-based; settings: for expression of bleomycin hydrolase in comparison with the control: 50 μg/ml, human keratinocytes, 24 hours, control 0.1% 1,3-butylene glycol, FIG. 24; for production of bleomycin hydrolase, concentration dependence: general statement in description
Description: Human keratinocytes derived from normal foreskin (Cascade Biologics Inc., Portland, Md.) were cultured for 24 hours at […] in the presence of each of the herbal medicine extracts or pharmaceutical agents ([…] to 50 μg/ml) shown in FIG. 24 in keratinocyte growth medium consisting of MCDB medium supplemented with epidermal growth factor (0.1 ng/ml), insulin (10 μg/ml), hydrocortisone (0.5 μg/ml), bovine pituitary extract (0.4%), gentamycin (50 μg/ml) and amphotericin B (50 ng/ml). 0.1% 1,3-butylene glycol was used as a control.
Total RNA (500 ng) isolated from the human keratinocytes cultured in the manner described above was reverse-transcribed using random hexamers and Superscript II RNase H-transcriptase (Gibco-BRL Corp., Gaithersburg, Md.), followed by subjecting to PCR amplification using Taq DNA polymerase (Takara Corp., Kyoto, Japan) and the following primers. 40 amplification cycles were carried out consisting of 30 seconds at 94° C., 1 minute at 60° C. and 1 minute at 72° C.
The primers used in PCR are indicated below.

IRF-2 = assay: Effect of cytokines on IRF-2 mRNA expression in cultured keratinocytes (FIG. 22); type: cell-based, human
Description: (§1) Transcription levels of BH and related factors were analyzed by quantitative real-time RT-PCR. Total RNA was extracted from cultured cells using Isogen (Nippon Gene Co., Ltd., Tokyo, Japan) in accordance with the instructions provided by the manufacturer. Reverse transcription of cDNA was carried out using SuperScript™ II (Invitrogen Corp., Carlsbad, Calif.). Real-time RT-PCR was carried out with the Light Cycler Raid Cycler System using the Light Cycler 480 SYBR Green I Master Mix (Roche Diagnostics GmbH) in accordance with the instructions provided by the manufacturer. Glyceraldehyde 3-phosphate dehydrogenase (GAPDH) was used as a housekeeping gene. Specificity of the amplified fragments was confirmed by quantitative analysis of melting curves by Light Cycler analytical software. The amounts of mRNA were standardized with respect to GAPDH mRNA, and finally indicated as a ratio to the mRNA of an untreated control.
(§2) An investigation was conducted of the cytokine-dependent regulation of these transcription factors.

bleomycin hydrolase [2] = assay: Effect of cytokines on bleomycin hydrolase mRNA expression, quantitative PCR (Experiment 5, FIG. 14); type: cell-based, human; settings: keratinocytes in the proliferation stage, 24 hours, IL-4 and TNFα 0.1-10 ng/ml, IFNγ 1.0-100 ng/ml
Description: (§3) Normal human epidermal keratinocytes derived from neonatal epidermis (Kurabo Industries, Ltd., Osaka, Japan) were cultured in EpiLife medium (Cascade Biologics, Inc., Portland, Oreg.) containing low-concentration (0.03 mM) calcium and HKGS Growth Supplement (Cascade Biologics, Inc.). All cells were incubated at 37° C. in the presence of 5% CO2 and were used within 4 passages of subculturing. Cells were collected at 70% confluence, 100% confluence, 2 days after reaching confluence, and 2 days after reaching confluence in 2 mM calcium.
The expression level of bleomycin hydrolase in keratinocytes was measured by quantitative PCR according to the following method using Light Cycler 480 (Roche Diagnostics GmbH, Mannheim, Germany). Light Cycler FastStart DNA Master CYBR Green I was used for the reagent. 0.6 μl aliquots of each of the following bleomycin hydrolase primers and 6.8 μl of water were added to 10 μl of SYBR Green I Master Mix followed by bringing to a total volume of 20 μl and carrying out PCR for 45 cycles consisting of 15 seconds at 95° C., 20 seconds at 55° C. and 20 seconds at 72° C. The results obtained were corrected by comparing with the results for a housekeeping gene, G3PDH.
IL-4 (final concentration: 0.1, 1.0 or 10 ng/ml), TNFα (final concentration: 0.1, 1.0 or 10 ng/ml) and IFNγ (final concentration: 1.0, 10 or 100 ng/ml) were respectively added to cultured keratinocytes in the proliferation stage, and after incubating for 24 hours, RNA was collected using Isogen. Expression of bleomycin hydrolase mRNA was measured by quantitative PCR. Based on the results shown in FIG. 14, a type of cytokine, interleukin-4 (IL-4) can be understood to down-regulate expression of bleomycin hydrolase.

IRF-1 = assay: Effect of cytokines on IRF-1 mRNA expression in cultured keratinocytes (FIG. 22); type: cell-based, human
Description: as §1, §2

BH promoter = BH promoter luciferase assay in transfected cultured keratinocytes (FIG. 20B); type: cell-based, human; settings: keratinocytes transfected with pGL3-BH-616 containing IRF-1/2 binding sites, 24 hours
Description: Keratinocytes were cultured in a 12-well tissue culture plate at a density of 5×10^4 cells/well followed by transfection with 1 μg aliquots of each construct using FuGene HD Transfection Reagent (Roche Diagnostics AG, Basel, Switzerland). In order to correct for transfection efficiency, all cells were simultaneously transfected with pGL4.74 [hRluc-TK] vector (Promega Co.) containing sea pansy (Renilla) luciferase gene under the control of HSV-TK promoter. Unless specifically indicated otherwise, the cells were collected 24 hours after transfection and lysed using […] of Passive Lysis Buffer (Promega Co.) per well. Luciferase activity was analyzed using the Dual Luciferase Reporter Assay System (Promega Co.) and Auto Lumat Plus Luminoeter (Berthold Technologies GmbH, Bad Wilbad, Germany). Firefly luciferase activity was standardized for sea pansy luciferase activity. Three transfections were independently carried out for each construct and results were expressed as the mean value thereof.
Since BH is an NMF-producing enzyme, it has the possibility of being involved in the pathophysiology of AD. Accordingly, an investigation was conducted of the effects of Th1, Th2 and Th17 cytokines on BH gene expression. […] Similar results were obtained with differentiated keratinocytes (data not shown). […]

BH gene = assay: Cytokine-mediated regulation of BH gene expression, real-time RT-PCR (Experiment 6, FIG. 20A); type: cell-based, human; settings: proliferating keratinocytes, 24 hours of incubation
Description: as §3, §1
Since BH is an NMF-producing enzyme, it has the possibility of being involved in the pathophysiology of AD. Accordingly, an investigation was conducted of the effects of Th1, Th2 and Th17 cytokines on BH gene expression. […] Similar results were obtained with differentiated keratinocytes (data not shown). In order to clarify the role of IFN-γ in the regulation of BH gene expression, a promoter assay was carried out to identify cytokine response elements. […] IFN-γ no longer suppressed promoter activity after this sequence was deleted (FIG. 20B). […]

Sp-1 = assay: Effect of cytokines on Sp-1 expression in cultured keratinocytes (FIG. 22); type: cell-based, human; settings: most effective at IL-4 10 ng/ml
Description: as §1, §2

MZF-1 = assay: Effect of cytokines on MZF-1 expression in cultured keratinocytes (FIG. 22); type: cell-based, human; settings: most effective at IL-4 10 ng/ml
Description: as §1, §2

[3] = only at IL-4 100 ng/ml, FIG. 22B

Compound	expression of bleomycin hydrolase in comparison with the control (bleomycin hydrolase [1])	production of bleomycin hydrolase, concentration dependence (bleomycin hydrolase [1])	expression of bleomycin hydrolase mRNA (bleomycin hydrolase [2])	BH mRNA expression (BH gene)	other results
O=C(O)CCCNS(=O)(=O)c1ccccc1 [benzenesulfonyl GABA, benzenesulfonyl γ-aminobutyric acid]	significantly increase	concentration-dependently promotes production			
OC[C@@H](O)[C@@H](O)CO [erythritol]	significantly increase	concentration-dependently promotes production			
IFN-γ: Th1 cytokine, human IFN-γ purchased from Peprotech EC			significantly increases	dose-dependent down-regulation; also recorded: remarkably suppressed; also recorded: significantly decreases	IRF-2 expression (IRF-2; IFN-γ treatment, FIG. 22A): up-regulated; IRF-1 mRNA expression (IRF-1; IFN-γ treatment, FIG. 22A): potent dose-dependent up-regulation; BH promoter activity (luciferase) (BH promoter): down-regulated
IL-4: Th2 cytokine, human IL-4 purchased from Peprotech EC			down-regulates	did not demonstrate any direct action whatsoever	expression of Sp-1 (Sp-1): down-regulated most effectively; also recorded: down-regulated; expression of IRF-2 (IRF-2; [3]): significantly amplified; expression of IRF-1 (IRF-1; [3]): significantly amplified; expression of MZF-1 (MZF-1): down-regulated most effectively; also recorded: down-regulated
IL-13: Th2 cytokine, human IL-13 manufactured by R&D Systems Inc.				did not demonstrate any direct action whatsoever	
TNFα			significantly increases		
